Laboratory results from patent publication US20260182217A1, “DISPLAY PANEL, ELECTRONIC DEVICE INCLUDING THE SAME, AND METHOD FOR MANUFACTURING THE DISPLAY PANEL” (priority 2024, published 2026).

Test: physchem

pKa: 5
SMILES: CCCCCCCCC(=O)O [A11]
